# Laboratory results published in patent publication US8404664B2, “Phosphonated Rifamycins and uses thereof for the prevention and treatment of bone and joint infections” (Targanta Therapeutics, Inc., priority 2005, dated 2013).
# Marks after values point to notes of the source that are not given here.
# Assays:
# S. aureus ATCC 13709 [1] = assay: Antibacterial susceptibility (MIC) in the presence of serum; format: cell-based; conditions: for MIC: Staphylococcus aureus, ATCC13709, 18 h
# Experimental: (§1) Susceptibility of S. aureus strains to the known antibiotics and synthesized compounds was determined by following the guidelines set by NCCLS (M26-A). Compounds were diluted two-fold serially in DMSO and transferred to cation-adjusted Mueller Hinton broth (CAMHB; Becton Dickinson). 50 μL of compounds diluted in CAMHB was mixed with 100 μL of bacteria diluted in CAMHB in 96-well microtiter plates. The final concentration of micro-organisms in the assay was 5×10^5 c.f.u. per mL and the final concentration of DMSO in the assay was 1.25%. Assays were set up in duplicate and incubated at 37° C. for 18 h. The lowest concentration of compound that inhibited visible growth was reported as the minimum inhibitory concentration (MIC).
# Susceptibility testing experiments were also carried out in the presence of serum.
# These experiments were carried out similar to the susceptibility testing with the following modifications. 75 μL of compounds diluted in CAMHB was mixed with 75 μL of bacteria diluted in 100% serum from any given source (commercial pooled mouse serum (MS) and human serum (HS), Equitech-Bio Inc.) or diluted in 8% purified human serum albumin (HSA) (Calbiochem). The final concentration of animal serum in the assay was 50% and the final concentration of purified human serum albumin in the assay was 4%; the concentrations of all other components were identical to those described for susceptibility testing.
# [2] = tested on: S. aureus ATCC 13709 Novobiocin resistant mutant (bone infection); assay: Prophylactic efficacy in rat model of S. aureus bone infection; format: in vivo; conditions: rat tibia 24 h postinfection, 3 days prior to infection
# Experimental: Specifically, a spontaneous Novobiocin resistant mutant strain of S. aureus ATCC 13709 (a clinical osteomyelitis isolate), was grown overnight at 37° C. in brain heart infusion broth (BHIB). After 16 h of growth, cells were subcultured into fresh BHIB and incubated for 4 to 5 h at 37° C. The cells were washed twice with phosphate-buffered saline (PBS) and resuspended in BHIB supplemented with 10% (vol./vol.) fetal bovine serum at a density of approximately 10^10 colony forming units (CFU)/ml (based upon turbidimetry). The suspension was aliquoted and a portion was used to check the CFU count. The culture was stored frozen (−80° C.) and was used without subculture. For use as an inoculum the culture was thawed, diluted in PBS and kept in an ice bath until it was used.
# Animals were infected as described by O'Reilly et al. (Antimicrobial Agents and Chemotherapy (1992), 36(12): 2693-97) to generate the bone infection. Female CD rats (age, 57 to 70 days; n=5/group; Charles River, St-Constant, Canada) were anaesthetized by isofluorane before and during the surgery. Following complete induction of anesthesia, the rat was placed ventral side up and hair was shaved from the surgical site. The skin over the leg was cleaned and disinfected (proviodine-ethanol 70%). A longitudinal incision below the knee joint was made in the sagital plane. The incision was made over the bone below the “knee joint” (tibia head or condyle) but not completely extending to the ankle. A high speed drill fitted with a 2 mm bulb bit was used to drill a hole into the medullar cavity of the tibia. Rats were injected intra-tibially with 0.05 ml 5% sodium morrhuate (sclerosing agent) and then with 0.05 ml of S. aureus suspension (ca. 2×10^7 CFU/rat). The hole was sealed by applying a small amount of dry dental cement which immediately absorbs fluids and adheres to the site. The wound was closed using 3 metal skin clips. Moxifloxacin (as a positive control) was injected once at 10 mg/kg intravenously 1 h postinfection in saline, while the Rifamycin derived prodrugs (prepared in 0.9% saline) were injected at the dose indicated in Table 3 as a single intravenous bolus at different time points prior to the infection.
# Infected rats were sacrificed by CO2 asphyxiation 24 h postinfection to monitor the bacterial CFU count. Infected tibiae were removed, dissected free of soft tissue, and weighed. The bones were ground, resuspended in 5 ml 0.9% NaCl, serially diluted and processed for quantitative cultures. For compounds 50, 68 and 81, 1 ml of the 0.9% NaCl solution was added to 50 mg of charcoal before serial dilutions. Treatment efficacy was measured in terms of Log viable bacteria (Log CFU per gram of bone). […] The limit of detection is 2 Log CFU. […] Differences were considered significant when the P value was <0.05 when comparing treated infected animals to the untreated infected ones. The doses used, the amount of time separating the treatment from the time of infection and the treatment outcomes are shown in Table 3.
# [3] = tested on: E. coli LBB925 (tolC mutant); assay: Antibacterial susceptibility (MIC), NCCLS broth microdilution; format: cell-based; conditions: for Minimum inhibitory concentration, E. coli LBB925: tolC mutant; for MIC: Escherichia coli, read-out: Minimum inhibitory concentration, E. coli LBB925
# [4] = tested on: S. aureus ATCC 13709 Novobiocin and Rifampicin resistant variant; assay: microbe, parasite or virus in culture; format: cell-based; conditions: for Minimum inhibitory concentration, S. aureus ATCC 13709 variant: Novobiocin and Rifampicin resistant variant; for MIC: Staphylococcus aureus, ATCC13709, read-out: Minimum inhibitory concentration, S. aureus ATCC 13709 variant
# Experimental: as §1
# [5] = Regeneration of drug from bone powder-bound prodrug; format: in vitro ADME; conditions: for % Conversion of bone-bound prodrug to parent drug: 24 h incubation, 37° C.; for Impact of the medium on the rate of regeneration of parent drug (in words): serum compared to PBS
# Experimental: Amounts of parent drug “regenerated” from the phosphonated prodrug were measured as follows. Washed bone powder-bound prodrugs from the above experiment were resuspended in 400 μL PBS+2% DMSO or in 400 μL 50% (v/v in PBS+2% DMSO) human or rat serum. The suspension was incubated overnight at 37° C., centrifuged at 13,000 rpm for 2 min and the supernatant was recovered. The amount of regenerated parent drug in the supernatant was determined by measurements using the microbiological assay that was previously described for the prodrugs themselves. The amount of prodrug was deduced from standard curves of known amounts of parent drug that were used as reference for each experiment.
# S. aureus ATCC 13709 [6] = assay: Antibacterial susceptibility (MIC), NCCLS broth microdilution; format: cell-based; conditions: for MIC: Staphylococcus aureus, ATCC13709, read-out: Minimum inhibitory concentration, S. aureus ATCC 13709
# Experimental: as §1
# [7] = tested on: S. aureus BK85 (Fluoroquinolone resistant MRSA); assay: as above; format: cell-based; conditions: for MIC: Staphylococcus aureus, read-out: Minimum inhibitory concentration, S. aureus BK85
# Experimental: as §1
# [8] = tested on: S. aureus ATCC 43300 (Fluoroquinolone sensitive MRSA); assay: as above; format: cell-based; conditions: for MIC: Staphylococcus aureus, read-out: Minimum inhibitory concentration, S. aureus ATCC 43300
# Experimental: as §1
# S. aureus RN4220 = assay: as above; format: cell-based; conditions: CAMHB, 37° C., 18 h; for MIC: Staphylococcus aureus, RN4220, read-out: Minimum inhibitory concentration, S. aureus RN4220
# Experimental: as §1
# [9] = single dose 20 mg/kg parent drug equivalent
# [10] = read-out: Minimum inhibitory concentration, S. aureus ATCC 13709 + 50% Human Serum
# [11] = read-out: Minimum inhibitory concentration, S. aureus ATCC 13709 + 50% Mouse Serum
# [12] = read-out: Minimum inhibitory concentration, S. aureus ATCC 13709 + 50% Rat Serum
Compound,"Minimum inhibitory concentration, S. aureus ATCC 13709 + 50% Human Serum (S. aureus ATCC 13709 [1]) [µg/mL]","Minimum inhibitory concentration, S. aureus ATCC 13709 + 50% Mouse Serum (S. aureus ATCC 13709 [1]) [µg/mL]","Minimum inhibitory concentration, S. aureus ATCC 13709 + 50% Rat Serum (S. aureus ATCC 13709 [1]) [µg/mL]","Measured bacterial titer [2, 9]","Minimum inhibitory concentration, E. coli LBB925 [3] [µg/mL]",Activity against the Rifampicin resistant variant of S. aureus ATCC13709 (in words) [4],"Minimum inhibitory concentration, S. aureus ATCC 13709 variant [4] [µg/mL]",% Conversion of bone-bound prodrug to parent drug ([5]; 50% Rat Serum) [%],% Conversion of bone-bound prodrug to parent drug ([5]; PBS) [%],Impact of the medium on the rate of regeneration of parent drug (in words) [5],"Minimum inhibitory concentration, S. aureus ATCC 13709 (S. aureus ATCC 13709 [6]) [µg/mL]","Minimum inhibitory concentration, S. aureus BK85 [7] [µg/mL]","Minimum inhibitory concentration, S. aureus ATCC 43300 [8] [µg/mL]","Minimum inhibitory concentration, S. aureus RN4220 (S. aureus RN4220) [µg/mL]",MIC (S. aureus ATCC 13709 [1]; [10]) [µg/mL],MIC (S. aureus ATCC 13709 [1]; [11]) [µg/mL],MIC (S. aureus ATCC 13709 [1]; [12]) [µg/mL],MIC [3] [µg/mL],MIC [4] [µg/mL],MIC (S. aureus ATCC 13709 [6]) [µg/mL],other results
CO[C@H]1/C=C/O[C@@]2(C)Oc3c(C)c(O)c4c(=O)c(c5oc6cc(N7CCC(OC(=O)CCC(=O)NC(P(=O)(O)O)P(=O)(O)O)CC7)cc(O)c6nc-5c4c3C2=O)NC(=O)/C(C)=C\C=C\[C@H](C)[C@H](O)[C@@H](C)[C@@H](O)[C@@H](C)[C@H](OC(C)=O)[C@@H]1C [Compound 68],1,1,2,4.86 ± 0.66 Log CFU/g of bone,64,complete lack of activity,>128,0.24,0.02,significant acceleration,0.0625,0.25,0.0625,0.25,–,–,–,–,–,–,Regeneration of parent drug once bound to bone (in words) [5]: only slightly regenerates
"CO[C@H]1/C=C/O[C@@]2(C)Oc3c(C)c(O)c4c(=O)c(c5oc6cc(N7CCC(O)CC7)cc(O)c6nc-5c4c3C2=O)NC(=O)/C(C)=C\C=C\[C@H](C)[C@H](O)[C@@H](C)[C@@H](O)[C@@H](C)[C@H](OC(C)=O)[C@@H]1C [Compound 63, 1′,4-Didehydro-1-deoxy-1,4-dihydro-3′-hydroxy-5′-[4-hydroxy-1-piperidinyl]-1-oxorifamycin VIII]",–,–,–,2.84 ± 0.93 Log CFU/g of bone,–,–,–,–,–,–,–,–,–,–,0.0078,0.0156,0.032,8,2,0.00048,MIC [7]: 0.00048 µg/mL; MIC [8]: 0.00048 µg/mL; MIC (S. aureus RN4220): 0.00048 µg/mL
CCN(CC)CC.CCN(CC)CC.CO[C@H]1/C=C/O[C@@]2(C)Oc3c(C)c(O)c4c(c3C2=O)C2=NC3(CCN(CC(C)C)CC3)N(C(=O)OCOC(=O)CCCC(P(=O)(O)O)P(=O)(O)O)C2=C(NC(=O)/C(C)=C\C=C\[C@H](C)[C@H](O)[C@@H](C)[C@@H](O)[C@@H](C)[C@H](OC(C)=O)[C@@H]1C)C4=O [Compound 50],0.125,0.125,0.032,6.31 ± 0.82 Log CFU/g of bone,16,complete lack of activity,>128,2.68,2.65,not significantly impacted,0.25,0.25,0.25,0.25,–,–,–,–,–,–,Impact of serum on the MICs (in words) (S. aureus ATCC 13709 [1]): no impact
"CO[C@H]1/C=C/O[C@@]2(C)Oc3c(C)c(O)c4c(=O)c(c5oc6cc(N7CCN(CC(C)C)CC7)cc(O)c6nc-5c4c3C2=O)NC(=O)/C(C)=C\C=C\[C@H](C)[C@H](O)[C@@H](C)[C@@H](O)[C@@H](C)[C@H](OC(C)=O)[C@@H]1C [Rifalazil, 1′,4-Didehydro-1-deoxy-1,4-dihydro-3′-hydroxy-5′-[4-(2-methylpropyl)-1-piperazinyl]-1-oxorifamycin VIII, reference compound]",–,–,–,4.08 ± 1.53^a Log CFU/g of bone,–,–,–,–,–,–,–,–,–,–,0.032,0.032,0.0078,16,16,0.001,Measured bacterial titer ([2]; single dose 10 mg/kg parent drug equivalent): 2.21 ± 0.34 Log CFU/g of bone; MIC [7]: 0.001 µg/mL; MIC [8]: 0.001 µg/mL; MIC (S. aureus RN4220): 0.00048 µg/mL
